Measurements: publication PMC11984388, “A brain-accessible peptide modulates stroke inflammatory response and neurotoxicity by targeting BDNF-receptor TrkB-T1 specific interactome” (Theranostics, 2025)
Read-outs that look alike come from different tables or passages of the source. Residues, ends and D or L forms follow the SMILES beside them. *: point of attachment. Biotin = O=C1N[C@H]2[C@H](CS[C@H]2CCCCC(=O)*)N1

Experiments:
[1] = test system: RhoGDI; test: Western blot of total RhoGDI levels; assay type: cell-based, rat; conditions: peptide 25 µM 30 min, mean, n = 6-7 (Fig S3)
Method: Ce lls were lyse d in RI P A buffer (50 mM Tris-HCl pH 8.0, 150 mM NaC l, 1% sodium deoxycholate , 1% NP-40, 0.1% SDS, 1 mM DT T), supple me nted with protease and phospha tase inhibitors as above, for 30 min at 4 °C. Then, cell lysa te s were sonic ated using a Bioruptor apparatus and centrifuga ted at 4 °C for 20 min at 10,000 rpm. The protein conce ntration in lysa te s was es tablished with BC A Prote in As say Kit (Thermo Fisher) follow ed by 5 min denaturalization in SDS-sa mple buffer at 95º. Equal amounts of total lysa te s were resolved in Tris-Glycine SDS-PAGE and transferre d to a nitroc ellulos e membrane (GE Healthca re ) in 25 mM Tris HCl pH 8.3, 250 mM glycine and 10% methanol, using an electr ic curre nt of 400 mA for 70 min. After transfer, membranes were sta ine d with a Ponceau S solution to chec k for its effic acy. Then, membranes were blocked for 30 min with a 5% non-fat […]
dry milk solution in Tris Buffere d Saline-Tween (TBS-T, 20 mM Tris HCl pH 7.5, 137 mM NaC l, 0.05% Tween-20) and incubated overnight at 4°C with prima ry antibodies . Next, membranes were was hed with TBS-T and incubated with the appropria te anti-rabbit or anti-mouse peroxidase-conjugated se condary antibodies (Bethyl) for 1 h. To conclude, immunore activity was detecte d using Clar ity Wes ter n ECL Blotting Substrate (BioRad) and band intensity was quantified by dens itome tric analys is (Photos hop, Adobe). Levels of the protein of interest were normalized using those of neuron- spe cific enolas e (NSE) present in the sa m e sa mple and express ed relative to values obtained in their respec tive controls, arbitrarily given a 100% value. NSE was use d as a neuronal loading control sinc e it is not af fe cted by NM DA treatment. Exceptionally, levels of TrkB -T1 were normalized to those of ß- actin in the comparison of prima ry mixed cultures and those of as trocytes . Multiple independent experiments were car r ied out and quantitated as detailed in the figure legends .
Cell transfection and gene reporter ass ays
Plasmids contained minimal CREB or MEF2 response elements upstream firefly luciferase reporter gene (respectively, pCRE or pMEF2; see details in Supplementary Table 1). Primary cultures, without the AraC treatment, were transfected at 11 DIVs with 0.4 µg of plasmids using Lipofectamine 2000. […] Protein extracts were obtained using Passive Lysis Buffer (Promega, Cat# E1941) and luciferase activity was detected by a luminometer (GloMax 96 microplate luminometer, Promega), using REAP buffer (25 mM glycylglycine, 15 mM SO4Mg, 4 mM EGTA, 15 mM potassium phosphate pH 7.8, 3.3 mM ATP, 1 mM DTT, 75 µM luciferin). […]

[2] = test system: NeuN+ neurons and GFAP+ astrocytes of mixed cortical cultures; test: Peptide visualization in primary cultures (Fluorescein Avidin D); assay type: cell-based, rat; conditions: peptide 25 µM, 30 min; Fluorescein Avidin D with NeuN and GFAP double staining (Fig 1C)
[3] = test system: primary cortical cultures; conditions: 25 µM
[4] = test system: Iba1; test: Immunohistochemistry of microglia in ischemic brain; assay type: in vivo; conditions: male mice, 3 nmol/g, 24 h of insult; versus TMyc
Method: The brains of animals injected one hour af ter the initiation of the photothrombotic damage with vehicle (saline), TMyc or TT1Ct (3 nmol/g) were process ed and cryoprote cted as before indicated. The duration of damage before sa cri f i ce was 5 h (male and female) or 24 h (male).
Coronal froze n se ctions were incubated with blocking solution as des cribe d in flota tion for 1 h at room temperature and then overnight with prima ry antibodies diluted in 4% goat se rum and 0.3% Triton X-100 in PBS at 4°C. After was hing, slides were incubated 1 h with Alexa Fluor 546- conjugated goat anti-rabbit or AlexaFluor 647- conjugated goat anti-mouse se condary antibodies to visua liz e the prima ry antibodies and DAPI (5 μg/ml). Only for Iba1 sta ining, blocking solution was 2.5% BS A, 5% goat se rum, 0.5% Triton X-100 in PBS, and se ctions were incubated with prima ry antibody 24 h at RT follow ed by was hing and Alexa Fluor 546-conjugated goat anti-rabbit and DAPI incubation for 1 h. Sections were then was hed in PBS, mounted on slides , dried for 15 min at 37 °C on a hot plate, or air dried overnight and then cover slipped with DPX or Prolong Diamond. Ce ll Obs erve d images were obtained with Zeiss microscope Observe r.Z1 using a 10x Plan-Apochromatic objective. […]

[5] = then BDNF 100 ng/ml 30 min, relative to basal Bio-TMyc (100%)

Molecule | RhoGDI total levels ([1]; basal, relative to basal conditions with Bio-TMyc (100%)) [%] | RhoGDI total levels [1, 5] [%] | Peptide entry into neurons and astrocytes [2] | Relative cell viability (%) ([3]; 4 h) | Relative cell viability (%) ([3]; 6 h) | Relative cell viability (%) ([3]; 24 h) | RhoGDI total levels ([1]; then NMDA 30 min, relative to basal Bio-TMyc (100%)) [%] | Effect on Iba1 in reactive microglia [4]
CC[C@H](C)[C@H](NC(=O)[C@H](CC(C)C)NC(=O)[C@H](CCCCN)NC(=O)[C@H](CCC(N)=O)NC(=O)[C@H](CCC(=O)O)NC(=O)[C@H](CCC(=O)O)NC(=O)[C@H](C)NC(=O)[C@H](CCCNC(=N)N)NC(=O)[C@H](CCCNC(=N)N)NC(=O)[C@H](CCCNC(=N)N)NC(=O)[C@H](CCC(N)=O)NC(=O)[C@H](CCCNC(=N)N)NC(=O)[C@H](CCCNC(=N)N)NC(=O)[C@H](CCCCN)NC(=O)[C@H](CCCCN)NC(=O)[C@H](CCCNC(=N)N)NC(=O)CNC(=O)[C@H](Cc1ccc(O)cc1)NC(=O)CCCC[C@@H]1SC[C@@H]2NC(=O)N[C@@H]21)C(=O)N[C@@H](CO)C(=O)N[C@@H](CCC(=O)O)C(=O)N[C@@H](CCC(=O)O)C(=O)N[C@@H](CC(=O)O)C(=O)N[C@@H](CC(C)C)C(=O)N[C@@H](CC(C)C)C(=O)N[C@@H](CCCNC(=N)N)C(N)=O [Bio-TMyc, reference compound] (Biotin-YGRKKRRQRRRAEEQKLISEEDLLR-NH2) | 100 | 92 | found inside both NeuN+ (arrowheads) and GFAP+ (asterisks) cells | 100 | 97 | 97 |  | 
CC[C@H](C)[C@H](NC(=O)[C@H](CCCCN)NC(=O)[C@H](Cc1c[nH]cn1)NC(=O)[C@H](Cc1ccccc1)NC(=O)[C@H](CC(C)C)NC(=O)[C@@H](NC(=O)[C@H](Cc1ccccc1)NC(=O)[C@H](CCCNC(=N)N)NC(=O)[C@H](CCCNC(=N)N)NC(=O)[C@H](CCCNC(=N)N)NC(=O)[C@H](CCC(N)=O)NC(=O)[C@H](CCCNC(=N)N)NC(=O)[C@H](CCCNC(=N)N)NC(=O)[C@H](CCCCN)NC(=O)[C@H](CCCCN)NC(=O)[C@H](CCCNC(=N)N)NC(=O)CNC(=O)[C@H](Cc1ccc(O)cc1)NC(=O)CCCC[C@@H]1SC[C@@H]2NC(=O)N[C@@H]21)C(C)C)C(=O)N1CCC[C@H]1C(=O)N[C@@H](CC(C)C)C(=O)N[C@@H](CC(=O)O)C(=O)NCC(N)=O [Bio-sTT1Ct] (Biotin-YGRKKRRQRRRFVLFHKIPLDG-NH2) |  | 93 | found inside both NeuN+ (arrowheads) and GFAP+ (asterisks) cells |  | 99 | 103 | 91 | 
Ac-YGRKKRRQRRRPPFVLFHKIPLDG-NH2 [TT1Ct] |  |  |  |  |  |  |  | limited Iba1 upregulation
